Among the data in patent publication US7767814B2, “Substituted piperidine compounds and methods of their use” (Adolor Corporation, priority 2004, dated 2010) are Ki values, retold here.

In assay [1] the target is T1, cloned human μ opioid receptor (Homo sapiens, UniProt P35372).
T1 construct: expressed in transfected cells; membranes used
Kind of assay: [3H]diprenorphine receptor binding, cloned human μ opioid receptor. Here is the method:
IC50 values were obtained by nonlinear analysis of the data using GraphPad Prism version 3.00 for Windows (GraphPad Software, San Diego). Ki values were obtained by Cheng-Prusoff corrections of IC50 values.
After dilution in buffer A and homogenization as before, membrane proteins (10-80 μg) in 250 μL were added to mixtures containing test compound and [^3H]diprenorphine (0.5 to 1.0 nM, 40,000 to 50,000 dpm) in 250 μL of buffer A in 96-well deep-well polystyrene titer plates (Beckman). […] The filters were rinsed 4 times with 1 mL of cold 50 mM Tris HCl, pH 7.8 and radioactivity remaining on the filters determined by scintillation spectroscopy. Nonspecific binding was determined by the minimum values of the titration curves and was confirmed by separate assay wells containing 10 μM naloxone.
To determine the equilibrium dissociation constant for the inhibitors (Ki), radioligand bound (cpm) in the presence of various concentrations of test compounds was measured. The concentration to give half-maximal inhibition (EC50) of radioligand binding was determined from a best nonlinear regression fit to the following equation, […]

Assay [2] deals with cloned human κ opioid receptor (Homo sapiens, UniProt P41145). The note with it: cloned human opioid receptors; background statement; read-out: Ki, inhibition of [3H]diprenorphine binding, κ receptor; cited from earlier work.
The target in assay [3] is cloned human δ opioid receptor (Homo sapiens, UniProt P41143). As to conditions: cloned human opioid receptors; background statement; read-out: Ki, inhibition of [3H]diprenorphine binding, δ receptor; cited from earlier work.
Sequence of cloned human δ opioid receptor (P41143 whole entry): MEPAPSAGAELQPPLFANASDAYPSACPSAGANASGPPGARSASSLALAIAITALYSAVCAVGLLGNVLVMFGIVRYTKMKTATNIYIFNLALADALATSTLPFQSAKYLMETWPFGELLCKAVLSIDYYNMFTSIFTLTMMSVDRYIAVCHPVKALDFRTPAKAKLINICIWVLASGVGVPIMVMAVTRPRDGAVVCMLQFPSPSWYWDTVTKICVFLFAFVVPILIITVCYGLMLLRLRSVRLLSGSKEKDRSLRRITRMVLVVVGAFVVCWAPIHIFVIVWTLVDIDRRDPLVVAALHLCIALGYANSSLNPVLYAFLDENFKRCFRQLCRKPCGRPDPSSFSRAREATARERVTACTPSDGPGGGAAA

Sequence of cloned human κ opioid receptor (P41145 whole entry): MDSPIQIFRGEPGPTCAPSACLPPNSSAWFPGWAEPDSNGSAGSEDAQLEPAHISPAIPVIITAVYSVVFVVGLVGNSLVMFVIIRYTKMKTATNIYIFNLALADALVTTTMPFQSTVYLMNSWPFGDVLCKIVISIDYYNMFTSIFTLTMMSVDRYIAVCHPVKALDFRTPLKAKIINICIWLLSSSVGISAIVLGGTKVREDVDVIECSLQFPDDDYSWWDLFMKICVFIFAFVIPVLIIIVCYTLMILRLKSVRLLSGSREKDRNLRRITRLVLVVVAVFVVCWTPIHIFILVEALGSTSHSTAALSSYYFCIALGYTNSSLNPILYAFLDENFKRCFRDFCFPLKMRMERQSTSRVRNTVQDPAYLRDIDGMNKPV
T1 sequence (P35372 whole entry): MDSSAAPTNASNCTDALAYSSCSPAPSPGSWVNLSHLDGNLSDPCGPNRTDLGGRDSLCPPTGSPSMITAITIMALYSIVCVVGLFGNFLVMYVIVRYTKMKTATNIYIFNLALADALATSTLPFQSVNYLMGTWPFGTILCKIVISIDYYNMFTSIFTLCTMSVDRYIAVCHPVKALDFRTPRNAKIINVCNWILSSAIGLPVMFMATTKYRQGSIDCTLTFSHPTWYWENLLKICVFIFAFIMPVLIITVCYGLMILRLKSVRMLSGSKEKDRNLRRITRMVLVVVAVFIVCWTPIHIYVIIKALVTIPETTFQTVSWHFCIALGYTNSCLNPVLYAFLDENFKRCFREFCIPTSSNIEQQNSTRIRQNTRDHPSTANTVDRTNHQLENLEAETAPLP

What is called Ki is a dissociation constant, usually derived from enzyme kinetics or from competition with a known ligand. In assay [1], `C[C@H]1C2CCC[C@]1(c1cccc(O)c1)CCN2C[C@H](Cc1ccccc1)C(=O)NCC(=O)O` [Example 2, {2S-Benzyl-3-[5-(3-hydroxy-phenyl)-9-methyl-2-aza-bicyclo[3.3.1]non-2-yl]-propionylamino}-acetic acid] came in with a Ki of 1.5 nM. On to `C[C@H]1CN(C[C@H](Cc2ccccc2)C(=O)NCC(=O)O)CC[C@@]1(C)c1cccc(O)c1` [Alvimopan], for which the figures for the Ki in assay [2] and in assay [3] were 92 nM and 10 nM, respectively.
